Laboratory results reported in ChEMBL document CHEMBL3352585, “2013 Philip S. Portoghese Medicinal Chemistry Lectureship: drug discovery targeting allosteric sites” (J Med Chem, 2014).
pEC50, pIC50: −log10 of the molar value.

How the values were obtained:
[1] = target: T1, Muscarinic acetylcholine receptor M5 (Homo sapiens, UniProt P08912); assay: Positive allosteric modulator activity at human muscarinic acetylcholine receptor M5 expressed in CHO cells by fluorometric imaging plate reader; type: cell-based
T1 sequence (P08912 whole entry): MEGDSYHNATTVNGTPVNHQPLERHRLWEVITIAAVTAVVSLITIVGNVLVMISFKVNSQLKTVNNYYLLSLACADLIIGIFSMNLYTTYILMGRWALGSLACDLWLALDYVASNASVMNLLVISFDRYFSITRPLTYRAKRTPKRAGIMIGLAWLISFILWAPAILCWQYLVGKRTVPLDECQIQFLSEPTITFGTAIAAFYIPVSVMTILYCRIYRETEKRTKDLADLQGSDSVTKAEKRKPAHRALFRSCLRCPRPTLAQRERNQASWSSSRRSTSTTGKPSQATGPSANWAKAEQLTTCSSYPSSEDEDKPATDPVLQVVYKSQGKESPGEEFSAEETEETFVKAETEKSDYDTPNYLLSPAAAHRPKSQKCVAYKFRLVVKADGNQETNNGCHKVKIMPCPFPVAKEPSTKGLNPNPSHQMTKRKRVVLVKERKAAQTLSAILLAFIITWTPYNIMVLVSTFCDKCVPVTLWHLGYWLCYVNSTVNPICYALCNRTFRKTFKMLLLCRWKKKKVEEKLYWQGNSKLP

[2] = target: T1, Muscarinic acetylcholine receptor M5; assay: Allosteric agonist activity at human muscarinic acetylcholine receptor M5
Protein kinase C (PKC) = assay: Inhibition of PKC (unknown origin); design: species or system Homo sapiens
[3] = Inhibition of PKA (unknown origin); design: species or system Homo sapiens
[4] = target: T2, Serine/threonine-protein kinase Sgk1 (Homo sapiens, UniProt O00141); assay: Inhibition of SGK (unknown origin)
T2 sequence (O00141 whole entry): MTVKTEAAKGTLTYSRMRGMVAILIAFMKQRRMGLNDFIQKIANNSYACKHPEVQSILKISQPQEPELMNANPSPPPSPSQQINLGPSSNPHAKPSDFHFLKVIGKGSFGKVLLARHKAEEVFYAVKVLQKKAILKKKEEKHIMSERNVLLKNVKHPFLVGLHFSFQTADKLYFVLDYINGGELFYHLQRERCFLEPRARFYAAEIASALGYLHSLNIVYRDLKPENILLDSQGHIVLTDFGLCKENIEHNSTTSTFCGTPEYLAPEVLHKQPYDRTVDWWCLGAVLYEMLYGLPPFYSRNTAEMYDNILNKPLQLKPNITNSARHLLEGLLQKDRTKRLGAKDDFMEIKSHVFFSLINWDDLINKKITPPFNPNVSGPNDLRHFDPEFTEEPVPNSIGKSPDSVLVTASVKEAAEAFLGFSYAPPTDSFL

[5] = target: T1, Muscarinic acetylcholine receptor M5; assay: Negative allosteric modulator activity at human muscarinic acetylcholine receptor M5 expressed in CHO cells by fluorometric imaging plate reader; type: cell-based
[6] = target: T1, Muscarinic acetylcholine receptor M5; assay: Silent allosteric modulator activity at human muscarinic acetylcholine receptor M5 expressed in CHO cells by fluorometric imaging plate reader; type: cell-based

**Q.** With `O=C(N[C@H]1C[C@@H](O)C1)c1ccc(C#Cc2cccc(F)c2)cn1` as the compound, how does the pEC50 [1] read?
**A.** 7.48

**Q.** With `O=C(N[C@H]1C[C@H](O)C1)c1ccc(C#Cc2cccc(F)c2)cn1` as the compound, how does the pEC50 [2] read?
**A.** 6.40

**Q.** With `CC(C)(N)c1ccc(-c2nc3ccccc3nc2-c2ccccc2)cc1` as the compound, how does the IC50 (Protein kinase C (PKC)) read?
**A.** > 250 µM

**Q.** What about the pIC50 [3] of the same compound?
**A.** < 3.60

**Q.** And the pIC50 [4]?
**A.** < 3.60

**Q.** With `COc1cccc(/C=N/N=C/c2cccc(OC)c2)c1` as the compound, how does the pEC50 [5] read?
**A.** 5.52

**Q.** With `Clc1cccc(/C=N/N=C/c2cccc(Cl)c2)c1` as the compound, how does the pEC50 [6] read?
**A.** 5.12

**Q.** With `Fc1cccc(/C=N/N=C/c2cccc(F)c2)c1` as the compound, how does the pEC50 [1] read?
**A.** 5.59
